In patent US20210069152A1, “METHODS FOR TREATING HETEROTOPIC OSSIFICATION” (Clementia Pharmaceuticals Inc., priority 2016, published 2021):

Columns and labels:
[1] = test system: heterotopic ossification in subjects with fibrodysplasia ossificans progressiva; assay: Flare-up outcomes, open-label study (new HO by low-dose CT scan); type: in vivo, human; details: open-label extension study, 27 flare-ups treated with open-label palovarotene
Procedure: (§1) Sixty-seven flare-ups have been treated: 40 with double-blind medication (10 subjects received placebo, 9 subjects received palovarotene at 5 mg once daily for 2 weeks followed by 2.5 mg once daily for 4 weeks, and 21 subjects received palovarotene at 10 mg once daily for 2 weeks followed by 5 mg once daily for 4 weeks); and 27 received open-label palovarotene. Sixty-one of these 67 flare-ups have available results from post-baseline imaging (by low-dose CT scan). The results are summarized for the respective studies in FIGS. 1 and 2.

[2] = test system: heterotopic ossification in subjects with fibrodysplasia ossificans progressiva; assay: Volume of new heterotopic ossification at flare-up site (x-ray / low-dose CT) in FOP patients, adult cohort dosing regimens; type: in vivo, human; details: for reduction in mean bone volume formation (new HO) relative to Placebo/Untreated group: 12 weeks
Procedure: FIGS. 3A and 3B are graphs showing a comparison of the volume of new heterotopic ossification between (i) episodic treatment of FOP patients (i.e., treatment during non-quiescent periods only and (ii) the treatment regimens of the present invention that include treatment during both quiescent and non-quiescent periods. Patients in the “Placebo/Untreated” group were treated with a sugar pill or untreated (28 patients). Patients in the “PVO Non-Quiescent Only” group were treated with either 20 mg palovarotene (PVO) daily for 28 days followed by 10 mg PVO daily for 56 days (47 patients) or 10 mg PVO daily for 14 days followed by 5 mg PVO daily for 28 days (9 patients). Patients in the “PVO Quiescent/Non-Quiescent” group were treated with 5 mg PVO daily during the quiescent period and with 20 mg PVO daily for 28 days (NQ loading dose) followed by 10 mg PVO daily for 56 days (NQ maintenance dose) following initiation of flare-up symptoms, i.e., initiation of a non-quiescent period (10 patients).
Adult cohort includes individuals who have achieved at least 90% skeletal maturity irrespective of age. Individuals in the adult cohort received palovarotene (neutral form) at 5 mg once daily as a non-flare-up based treatment (e.g., during periods when symptoms of a flare-up were not present). […]
Assessment of new HO at the flare-up site was evaluated using x-ray, and low-dose CT imaging was employed as a secondary imaging assessment. […] In order to ensure consistency and standardization, images were evaluated for the presence or absence of HO using two independent procedures, both of which were blinded to treatment group assignment. In the Primary Read process, two musculoskeletal radiologists independently compared baseline and post-baseline images within a single imaging modality.
The volume of new heterotopic ossification (HO), HO that occurred during the non-quiescent period, was assessed 12 weeks following initiation of treatment for the “Non-Quiescent Only” treatment group and 12 weeks after initiation of the 20 mg/day NQ loading dose in the “Quiescent/Non-Quiescent” treatment group.

[3] = test system: subjects with fibrodysplasia ossificans progressiva; assay: Safety outcomes, open-label study; type: in vivo, human
Procedure: as §1
The findings were similar in the open-label study (described in Example 1) in which the overall incidence of adverse events was 92.3% (12 of 13 subjects). Retinoid-associated adverse events were reported by all subjects; most were mild (69.2%) in severity. The most frequently reported adverse events overall were dry skin (69.2%) and pruritus (61.5%).

[4] = test system: subjects with fibrodysplasia ossificans progressiva; assay: Safety outcomes, double-blind study; type: in vivo, human
Procedure: as §1
The most frequently reported adverse events overall were dry skin (58.8%) and dry lips (32.4%).

growth plate = assay: Growth plate assessment by knee and hand/wrist radiographs in children; type: in vivo, human; details: acute 6-week treatment
Prrx1-R206H mice = assay: Growth plate assessment in Prrx1-R206H mice; type: in vivo
Procedure: (§2) The effects of palovarotene on the growth plates were assessed.

wild-type mice = assay: Growth plate assessment in wild-type mice; type: in vivo
Procedure: as §2

## CC1(C)CCC(C)(C)c2cc(Cn3cccn3)c(/C=C/c3ccc(C(=O)O)cc3)cc21 [palovarotene, 4-[(1E)-2-[5,6,7,8-Tetrahydro-5,5,8,8-tetramethyl-3-(1H-pyrazol-1-ylmethyl)-2-naphthalenyl]-ethenyl]-benzoic acid]
[1]
  number of flare-ups with new HO: four
[2]; Non-Quiescent Only group (both doses pooled)
  reduction in mean bone volume formation (new HO) relative to Placebo/Untreated group: 75%
[2]; PVO Quiescent/Non-Quiescent: 5 mg daily quiescent, 20 mg daily 28 days then 10 mg daily 56 days after flare-up (10 patients), 12 weeks after start of NQ loading dose
  volume of new heterotopic ossification: 212 mm^3
[2]; Quiescent/Non-Quiescent group
  reduction in mean bone volume formation (new HO) relative to Placebo/Untreated group: 97%
[3]
  dose reductions or discontinuations of treatment: no dose reductions or discontinuations of treatment
  retinoid-associated adverse events mild in severity: 69.2%
  subjects reporting retinoid-associated adverse events: all subjects
[3]; 12 of 13 subjects
  overall incidence of adverse events: 92.3%
[3]; overall
  incidence of dry skin: 69.2%
  incidence of pruritus: 61.5%
[4]
  dose reductions or discontinuations of treatment: no dose reductions or discontinuations of treatment
  incidence and severity of retinoid-associated adverse events, trend: dose-related increases in the incidence and severity
  severity of most retinoid-associated adverse events: mild or moderate
  trend of adverse event incidence across the treatment groups: dose-related increases across the treatment groups
[4]; 33 of 34 subjects with safety data, all treatment groups (placebo, 5/2.5 mg, 10/5 mg)
  overall incidence of adverse events: 97.1%
[4]; overall
  incidence of dry lips: 32.4%
  incidence of dry skin: 58.8%
Growth plate
  adverse effects on the growth plate: no adverse effects on the growth plate
Prrx1-R206H mice
  effect on long bone growth, growth plate organization and matrix deposition: preserved long bone growth and near-normalized growth plate organization and matrix deposition
Prrx1-R206H mice; daily dosing
  effect on histologic growth plate abnormalities and long bone length: reversed histologic growth plate abnormalities and shortened long bones
wild-type mice
  effect on growth plate: Adverse effects
